Among the test systems are HCC-2998 colon; HOP-62 NSCLC; IGROV1 ovarian; M14 melanoma; MDA-MB-231 breast; NCI-H226 lung; SF-539 CNS; SK-MEL-28 melanoma; SNB-75 CNS; UO-31 renal.
Holding throughout (test): growth of human tumour cells (NCI), 48 h

Among the data in PubChem BioAssay (NCI) are GI50 and TGI values, retold here.

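Following 48 hours of exposure in 96-well plates, responses at five concentrations were used to interpolate endpoints linearly. At the GI50, growth is halved. Definition used: TGI = concentration required for complete inhibition of growth.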

For the compound `COC(=O)[C@H]1CCCN1C(=O)[C@H]1CCCN1C(=O)[C@H](Cc1c[nH]c2ccccc12)NC(=S)Nc1cc(C(F)(F)F)cc(C(F)(F)F)c1`, the GI50 was 2.42 µM in the assay on HCC-2998 colon; 8.28 µM with HOP-62 NSCLC; 6.97 µM in the assay with IGROV1 ovarian; 7.15 µM in the assay with M14 melanoma; 2.18 µM with MDA-MB-231 breast; 9.63 µM with NCI-H226 lung. The GI50 was 3.93 µM in the assay on SF-539 CNS, 5.83 µM in the assay on SK-MEL-28 melanoma, 1.45 µM in the assay with SNB-75 CNS and 18.5 µM in the assay with UO-31 renal. In addition, the TGI in the assay with HCC-2998 colon was 5.96 µM; with HOP-62 NSCLC it was greater than 100 µM; in the assay with IGROV1 ovarian, greater than 100 µM; with M14 melanoma, 64.1 µM; in the assay with MDA-MB-231 breast it was 5.25 µM; with NCI-H226 lung, greater than 100 µM. In addition, the TGI with SF-539 CNS is 30.4 µM; in the assay on SK-MEL-28 melanoma, greater than 100 µM; with SNB-75 CNS, greater than 100 µM; in the assay with UO-31 renal, greater than 100 µM.

In the case of `COc1ccc(N(C)c2nc(N)nc3sc4c(c23)CCCC4)cc1`, the GI50 is less than 0.0146 µM with HCC-2998 colon; 0.275 µM in the assay on HOP-62 NSCLC; less than 0.01 µM with IGROV1 ovarian; less than 0.01 µM with M14 melanoma; less than 0.01 µM in the assay on MDA-MB-231 breast; 0.616 µM in the assay on NCI-H226 lung. The GI50 in the assay on SF-539 CNS was less than 0.01 µM; in the assay with SK-MEL-28 melanoma, 4.3 µM; in the assay on SNB-75 CNS it was less than 0.01 µM; in the assay on UO-31 renal, less than 0.01 µM. The TGI with HCC-2998 colon stood at 12 µM; in the assay with HOP-62 NSCLC it was 18.8 µM; with IGROV1 ovarian, 13 µM; in the assay on M14 melanoma, 11.4 µM; in the assay with MDA-MB-231 breast it was 0.918 µM; with NCI-H226 lung, 22.3 µM. The TGI in the assay on SK-MEL-28 melanoma was found to be 23.4 µM; in the assay on SNB-75 CNS it was 13.2 µM; in the assay with UO-31 renal, 14.2 µM.

`CN(CC(=O)N(Cc1ccc(C2CCCCC2)cc1)c1ccc(C(=O)O)cc1)S(=O)(=O)c1c(F)c(F)c(F)c(F)c1F`: the GI50 in the assay with HCC-2998 colon is 1.76 µM; in the assay on HOP-62 NSCLC, 2.09 µM; with IGROV1 ovarian, 2.08 µM; with M14 melanoma, 1.91 µM; with MDA-MB-231 breast, 1.9 µM; in the assay with NCI-H226 lung, 2.49 µM. The GI50 was 1.69 µM with SF-539 CNS, 1.62 µM in the assay with SK-MEL-28 melanoma, 1.61 µM in the assay on SNB-75 CNS and 1.91 µM with UO-31 renal. Besides, the TGI in the assay with HCC-2998 colon is 3.22 µM; with HOP-62 NSCLC, 4.59 µM; in the assay on IGROV1 ovarian it was 4.46 µM; with M14 melanoma, 3.59 µM; in the assay with MDA-MB-231 breast, 3.51 µM; with NCI-H226 lung it was 5.51 µM. Further, the TGI in the assay on SF-539 CNS came out at 3.26 µM; in the assay with SK-MEL-28 melanoma it was 3.03 µM; in the assay on SNB-75 CNS, 2.96 µM; with UO-31 renal, 4.73 µM.

In the case of `CCCCCCCCCCCC[n+]1ccc2ccccc2c1`, the GI50 with HCC-2998 colon was 1.07 µM; in the assay on HOP-62 NSCLC it was 1.48 µM; in the assay with IGROV1 ovarian, 0.413 µM; in the assay with M14 melanoma, 0.588 µM; with MDA-MB-231 breast, 1.28 µM; with NCI-H226 lung, 1.1 µM. The GI50 was 1.58 µM in the assay on SF-539 CNS, 1.47 µM in the assay on SK-MEL-28 melanoma, 1.14 µM with SNB-75 CNS and 1.19 µM in the assay on UO-31 renal. Also, the TGI in the assay with HCC-2998 colon was found to be 2.32 µM; with HOP-62 NSCLC it was 3.01 µM; in the assay with IGROV1 ovarian, 1.85 µM; in the assay with M14 melanoma, 2.79 µM; in the assay with MDA-MB-231 breast it was 2.85 µM; with NCI-H226 lung it was 3.85 µM. The TGI with SF-539 CNS amounted to 3.22 µM; with SK-MEL-28 melanoma it was 3 µM; in the assay with SNB-75 CNS it was 2.78 µM; in the assay on UO-31 renal, 3.23 µM.

As for `Cc1cc(Cl)nc(N(CCCNc2ccnc3cc(Cl)ccc23)Cc2ccco2)n1`, the GI50 was 1.97 µM in the assay with HCC-2998 colon; 1.59 µM in the assay on HOP-62 NSCLC; 1.92 µM with IGROV1 ovarian; 1.88 µM in the assay with M14 melanoma; 2.13 µM with MDA-MB-231 breast; 1.3 µM with NCI-H226 lung. Also, the GI50 with SF-539 CNS was 2.33 µM; with SK-MEL-28 melanoma, 2.38 µM; in the assay with SNB-75 CNS, 2.13 µM; in the assay with UO-31 renal it was 1.08 µM. Further, the TGI in the assay with HCC-2998 colon came to 5.67 µM; with HOP-62 NSCLC, 5.65 µM; in the assay on IGROV1 ovarian, 8.26 µM; with M14 melanoma, 4.08 µM; in the assay on MDA-MB-231 breast, 5.93 µM; in the assay with NCI-H226 lung, 6.91 µM. Also, the TGI in the assay on SF-539 CNS was found to be 6.38 µM; in the assay with SK-MEL-28 melanoma it was 6.37 µM; in the assay with SNB-75 CNS, 11.2 µM; in the assay with UO-31 renal, 5.93 µM.

Take `CCn1c(-c2nonc2N)nc2cncc(C(=O)N3CC[C@H](N)C3)c21`: the GI50 in the assay on HCC-2998 colon is greater than 25 µM; in the assay with HOP-62 NSCLC, 7.38 µM; with IGROV1 ovarian, greater than 25 µM; in the assay with M14 melanoma, 24.6 µM; in the assay on MDA-MB-231 breast, greater than 25 µM; with NCI-H226 lung, 0.966 µM. For the same compound, the GI50 was 2.63 µM with SF-539 CNS, greater than 25 µM in the assay with SK-MEL-28 melanoma, 0.319 µM in the assay with SNB-75 CNS and 0.269 µM with UO-31 renal. Moreover, the TGI with HCC-2998 colon, in the assay on HOP-62 NSCLC, with IGROV1 ovarian, in the assay on M14 melanoma, in the assay with MDA-MB-231 breast and with NCI-H226 lung was greater than 25 µM throughout. For the same compound, the TGI with SF-539 CNS was greater than 25 µM; in the assay with SK-MEL-28 melanoma, greater than 25 µM; in the assay on SNB-75 CNS, greater than 7.84 µM; in the assay on UO-31 renal, greater than 8.77 µM.

On to `CC[n+]1c(/C=C/C=C2\N(C)c3ccccc3C2(C)C)sc2ccccc21`, for which the GI50 was 3.86 µM with HCC-2998 colon; 4.47 µM in the assay on HOP-62 NSCLC; 4.68 µM in the assay with IGROV1 ovarian; 4.03 µM in the assay on M14 melanoma; 4.5 µM in the assay with MDA-MB-231 breast; 4.55 µM in the assay on NCI-H226 lung. The GI50 with SF-539 CNS is 4 µM; in the assay on SK-MEL-28 melanoma, 4.17 µM; with SNB-75 CNS it was 3.7 µM; in the assay on UO-31 renal, 3.55 µM. The TGI with HCC-2998 colon amounted to 7.81 µM; with HOP-62 NSCLC, 9.31 µM; in the assay on IGROV1 ovarian, 10.7 µM; with M14 melanoma, 8.33 µM; in the assay on MDA-MB-231 breast, 10.3 µM; with NCI-H226 lung, 12.2 µM. The TGI is 7.5 µM in the assay on SF-539 CNS, 7.97 µM with SK-MEL-28 melanoma, 7.5 µM in the assay on SNB-75 CNS and 7.26 µM in the assay on UO-31 renal.
